Like-named read-outs stand apart in the source and are kept apart here.
Key:
[1] = Source text: Particle size data was acquired using a Malvern Instruments MS2000 equipped with a Hydro2000μP dispersion unit. Data was collected and analyzed with Mastersizer 2000v.5.1 software, using volume based measurements. NIST traceable glass beads were used as the reference standard.
The final method conditions selected for determining the particle size of BL-1021 fumarate salts were as follows:
Dispersant: silicone oil;
Dispersant refractive index: 1.403;
The measurement of particle size of all lots was performed using the same method conditions (silicone oil as a dispersing medium, a pump speed of 1750 rpm).

[2] = remark: listed apart in the source
Source text: Samples were submitted to Particle Technology Labs (PTL), Downers Grove, Ill., for bulk and tapped density analyses.

[3] = remark: listed apart in the source
Protocol: Surface area data were collected using nitrogen absorption on a BET Micrometics Gemini V (11-point BET analysis) analyzer. The samples were outgassed at 25° C. under vacuum for at least 2 hours. SRM 1899 and SRM 1900 were used as the calibration standards.

[4] = silicone oil dispersing medium, pump speed 1750 rpm, volume based, text b315 speaks of μm
[5] = batches after milling, listed as CC-2190.0-20.1
[6] = batches after milling, listed as CC-2190.0-21.1
[7] = batches after milling, listed as CC-2190.0-23.1
[8] = batches after milling, listed as CC-2562.0-01.1
[9] = batches before and after milling

particle size distribution d10 [1, 4]: 7.0
particle size distribution d50 [1, 4]: 93.9
particle size distribution d90 [1, 4]: 220.8
D90 (as stated in text, FIG. 6) ([1]; silicone oil, 1750 rpm): 200±25%
particle size up to (upper end of bimodal distribution, FIG. 6) ([1]; silicone oil, 1750 rpm, fine tail below 1 μm): ≤ 400 μm
Bulk density ([2]; batch before milling): 0.29 g/mL
Tapped density ([2]; batch before milling): 0.42 g/mL
Bulk density [2, 5]: 0.22 g/mL
Tapped density [2, 5]: 0.35 g/mL
Bulk density [2, 6]: 0.18 g/mL
Tapped density [2, 6]: 0.31 g/mL
Bulk density [2, 7]: 0.25 g/mL
Tapped density [2, 7]: 0.39 g/mL
Bulk density [2, 8]: 0.19 g/mL
Tapped density [2, 8]: 0.36 g/mL
bulk density (range over batches) [2, 9]: 0.18-0.29 gram/ml
tapped density (range over batches) [2, 9]: 0.31-0.42 gram/ml
BET surface area, Results ([3]; batch before milling): 6.58 m^2/g
BET surface area, Results [3, 5]: 8.43 m^2/g
BET surface area, Results [3, 6]: 10.84 m^2/g
BET surface area, Results [3, 7]: 11.84 m^2/g
BET surface area, Results [3, 8]: 7.45 m^2/g
Compound: CN(CCC=C1c2ccccc2CCc2ccccc21)C(=O)CCCN.O=C(O)/C=C/C(=O)O [BL-1021 fumarate salt, nortriptyline-4-aminobutyrate fumarate]
